A short description of the data set: photoluminescence quantum yield (fraction); solvent given as SMILES.

Turning to `c1ccc(-c2ccc(-c3ccc(-n4c5ccccc5c5ccccc54)cc3)c3nsnc23)cc1`, the photoluminescence quantum yield came to 0.426 (in C1CCOC1), 0.059 (in CC(C)=O), 0.697 (in CCCCCC) and 0.599 (in CCOCC).

`CC/[NH+]=c1\cc2oc3cc(NCCC(=O)NC(CCC(=O)OC)C(=O)OC)c4ccccc4c3nc-2cc1C` (stereo unspecified): the photoluminescence quantum yield is, setting by setting: (in CCO) 0.48; (in O) 0.16.

For the molecule `CCCCn1c(-c2ccc(-c3nnc(-c4ccc(-c5nc6ccccc6n5CCCC)cc4)o3)cc2)nc2ccccc21`, the photoluminescence quantum yield (in ClCCl) was 0.63.

Turning to `C(=C\N1CCCC1)/c1nc2ccccc2nc1-c1ccccc1`, the photoluminescence quantum yield runs as follows: (in C1CCCCC1) 0.186; (in C1CCOC1) 0.445; (in CC#N) 0.199; (in CC(C)=O) 0.284; (in CCO) 0.023; (in CO) 0.006. The molecule further yielded a photoluminescence quantum yield (in CS(C)=O) of 0.112, a photoluminescence quantum yield (in Cc1ccccc1) of 0.49 and a photoluminescence quantum yield (in ClCCl) of 0.598.

In turn, `CC1=N/C(=C\c2cccc(N(C)C)c2)C(=O)N1C` had a photoluminescence quantum yield (in C1CCOC1) of 0.14, a photoluminescence quantum yield (in CC#N) of 0.05 and a photoluminescence quantum yield (in CCCCCC) of 0.46.

`Cc1cc(C)c2c(c1)c1cc(C)cc(C)c1n2-c1ccc2c(c1)Sc1cc3c(cc1B2c1c(C(C)C)cc(C(C)C)cc1C(C)C)B(c1c(C(C)C)cc(C(C)C)cc1C(C)C)c1ccccc1S3`: the photoluminescence quantum yield reads like this: (in Cc1ccccc1) 0.17; (in O=P(c1ccccc1)(c1ccccc1)c1ccc2oc3ccc(P(=O)(c4ccccc4)c4ccccc4)cc3c2c1) 0.93.

For the setting “in ClCCl”, `COc1ccc(-c2cc(-c3ccc(C(F)(F)F)cc3)nn2C)cc1` displayed a photoluminescence quantum yield of 0.2.

For the setting “in Cc1ccccc1”, `Cc1ccc(-n2c(-c3cccc4cc[n-]c34)[nH+]c3c4ccccc4c4ccccc4c32)cc1` came in with a photoluminescence quantum yield of 0.015.

With `CC(C)[Si](C#Cc1c2ccc(C(C)(C)C)cc2c(C#Cc2c3ccc(C(C)(C)C)cc3c(C#C[Si](C(C)C)(C(C)C)C(C)C)c3ccc(C(C)(C)C)cc23)c2ccc(C(C)(C)C)cc12)(C(C)C)C(C)C`, for the setting “in Cc1ccccc1”, the photoluminescence quantum yield is 0.02.

Take `NS(=O)(=O)c1ccc(N2N=C(c3ccc(O)cc3)CC2c2ccc(F)cc2)cc1` (stereo unspecified): the photoluminescence quantum yield runs as follows: (in C1CCOC1) 0.88; (in C1COCCO1) 0.78; (in CC#N) 0.75; (in CC(C)O) 0.52; (in CCO) 0.47; (in CCOC(C)=O) 0.87. Besides, the photoluminescence quantum yield (in CN(C)C=O) was determined as 0.89, the photoluminescence quantum yield (in CO) is 0.36, the photoluminescence quantum yield (in CS(C)=O) was determined as 0.93 and the photoluminescence quantum yield (in O) is 0.57.

`c1ccc(C2CCN3COc4c5ccccc5c5c6c7c(c2c3c46)C(c2ccccc2)CCN7CO5)cc1` (stereo unspecified): the photoluminescence quantum yield by setting is: (in C1CCCCC1) 0.715; (in C1CCOC1) 0.124; (in C1COCCO1) 0.183; (in CC#N) 0.025; (in CC(C)=O) 0.046; (in CCOC(C)=O) 0.108. Further, the photoluminescence quantum yield (in CCOCC) amounted to 0.227; the photoluminescence quantum yield (in CN(C)C=O) is 0.039; the photoluminescence quantum yield (in CO) stood at 0.023; the photoluminescence quantum yield (in CS(C)=O) came to 0.026; the photoluminescence quantum yield (in Cc1ccccc1) worked out at 0.871; the photoluminescence quantum yield (in ClC(Cl)Cl) turned out to be 0.053. Under “in ClCCl”, this molecule gave a photoluminescence quantum yield of 0.066.

`CCCCOC(=O)c1cc(Oc2ccc(OC)cc2)c2c3c(Cl)cc4c5c(cc(Cl)c(c6c(Oc7ccc(OC)cc7)cc(C(=O)OCCCC)c1c26)c53)C(=O)N(c1c(C(C)C)cccc1C(C)C)C4=O` yielded a photoluminescence quantum yield (in Cc1ccccc1) of 0.55.

The molecule `Fc1ccc(N(c2ccccc2)c2ccc3ccc4c(N(c5ccccc5)c5ccc(F)cc5)ccc5ccc2c3c54)cc1` gave a photoluminescence quantum yield (in ClCCl) of 0.8.

Take `F[B-]1(F)n2c(NCc3ccccc3)ccc2C(c2c(Cl)cccc2Cl)=C2C=CC(NCc3ccccc3)=[N+]21`: the photoluminescence quantum yield reads like this: (in CC#N) 0.42; (in CCCCCC) 0.55; (in CCOC(C)=O) 0.44; (in CO) 0.5; (in ClCCl) 0.52.

With `O=c1[nH]nc(-c2ccc(/C=C/c3ccc(-c4n[nH]c(=O)o4)cc3)cc2)o1`, the photoluminescence quantum yield (in CN(C)C=O) was found to be 0.5.

For `COC(=O)c1[nH]c(-c2ccccc2)c2nnc3ccc(OC)cc3c12`, under “in ClCCl”, the photoluminescence quantum yield was 0.0207.

`COc1c(-c2ccc(N(C)C)cc2)oc2ccccc2c1=O`: the photoluminescence quantum yield came out at 0.048 (in C1CCCCC1), 0.88 (in C1CCOC1), 0.69 (in CC#N) and 0.021 (in CO).

As to `N#C/C=C/c1ccc2ccc3cccc4ccc1c2c34`, the photoluminescence quantum yield reads like this: (in C1CCOC1) 0.72; (in C1COCCO1) 0.63; (in CC#N) 0.32; (in CC(C)=O) 0.62; (in CCCCCC) 0.53; (in CCOC(C)=O) 0.62. Further, the photoluminescence quantum yield (in CO) came out at 0.44 and the photoluminescence quantum yield (in Cc1ccccc1) worked out at 0.55.

With `CCC1=C(C)C(=O)n2c1cc1c(c(C)c(C(=O)OC)n1C)c2=O`, the photoluminescence quantum yield turned out to be 0.03 (in C1CCCCC1); 0.66 (in CO); 0.8 (in CS(C)=O); 0.71 (in ClC(Cl)Cl); 0.18 (in c1ccccc1).

The molecule `CC1(C)CC(=O)C2=C(C1)Oc1ccc3ccc(O)cc3c1C2c1ccccn1` (stereo unspecified) yielded a photoluminescence quantum yield (in C1CCOC1) of 0.0027; a photoluminescence quantum yield (in C1COCCO1) of 0.0021; a photoluminescence quantum yield (in CC#N) of 0.0037; a photoluminescence quantum yield (in CCCCCCC) of 0.0082; a photoluminescence quantum yield (in CCO) of 0.0035; a photoluminescence quantum yield (in CO) of 0.0024. The molecule further came in with a photoluminescence quantum yield (in O) of 0.2.

As to `C[Si](C)(C)c1ccc(-c2ccc(-c3ccc(-c4ccc(-c5ccc([Si](C)(C)C)cc5)s4)c4nsnc34)s2)cc1`, under “in C1CCOC1”, the photoluminescence quantum yield is 0.77.

`Nc1ccc(C#Cc2ccc3ccc4ccc(C#Cc5ccc(N)cc5)c5ccc2c3c45)cc1` had a photoluminescence quantum yield (in CCCCCC) of 0.466, a photoluminescence quantum yield (in CO) of 0.199 and a photoluminescence quantum yield (in ClCCl) of 0.646.

As to `CCCCCCCCCCOc1cc(OCCCCCCCCCC)cc(C2=C3C(/C=C/c4ccc(OC)cc4)=CC(/C=C/c4ccc(OC)cc4)=[N+]3[B-](F)(F)n3c(/C=C/c4ccc(OC)cc4)cc(C=Cc4ccc(OC)cc4)c32)c1`, the photoluminescence quantum yield (in ClC(Cl)Cl) was determined as 0.34.

Regarding `CC[N+]1(CC)CN2C(=N1)C(C(=O)O)=Cc1cc(Oc3ccccc3)ccc12`, the photoluminescence quantum yield (in O) was found to be 0.592.

Where the note is “in CO”, `CCCCCCN(CCCCCC)c1ccc(C#Cc2ccc(N(CCCCCC)CCCCCC)cc2)cc1` returned a photoluminescence quantum yield of 0.0001.

`CC(C)(C(=O)c1ccc(N2c3ccccc3C(C)(C)c3ccccc32)cc1)C(=O)c1ccc(N2c3ccccc3C(C)(C)c3ccccc32)cc1`: the photoluminescence quantum yield (in c1ccc2c(c1)c1ccccc1n2-c1ccc(-c2ccc(-n3c4ccccc4c4ccccc43)cc2)cc1) came to 0.64.

`CCCCCCCCN(CCCCCCCC)c1ccc(/C=C/c2ccc(C#Cc3ccc(-c4ccc(C#Cc5ccc(/C=C/c6ccc(N(CCCCCCCC)CCCCCCCC)cc6)cc5)cc4)cc3)cc2)cc1` had a photoluminescence quantum yield (in Cc1ccccc1) of 0.5.

On to `CN(C)c1ccc2cc(C3=[O+][B-](F)(F)OC(c4ccccc4)=C3)ccc2c1`, for which the photoluminescence quantum yield runs as follows: (in C1CCOC1) 0.1; (in CC#N) 0.007; (in CC(C)=O) 0.01; (in CS(C)=O) 0.005; (in Cc1ccccc1) 0.97; (in ClC(Cl)Cl) 0.9. This molecule also had a photoluminescence quantum yield (in ClCCl) of 0.13.

Take `CCCCCCN1C(=O)c2cccc3cc(/N=C\c4cn(C)c5ccccc45)cc(c23)C1=O`: where the note is “in ClC(Cl)Cl”, the photoluminescence quantum yield was 0.03.

Consider `COc1cc(/C=C/c2nc3ccccc3o2)c(OC)cc1/C=C/c1nc(C)nc(C)n1`, for which the photoluminescence quantum yield is, setting by setting: (in C1CCOC1) 0.89; (in CC#N) 0.85; (in ClC(Cl)Cl) 0.86; (in ClCCl) 0.86.

Turning to `C[Si]1(C)c2cc(-c3ccc(-c4cccs4)s3)ccc2C=Cc2ccc(-c3ccc(-c4cccs4)s3)cc21`, for the setting “in ClCCl”, the photoluminescence quantum yield is 0.46.

`CCC1(CC)c2cc(/C=C/c3cc(C#N)c(/C=C/c4ccc5c(c4)C(CC)(CC)c4cc(N6c7ccccc7Sc7ccccc76)ccc4-5)cc3C#N)ccc2-c2ccc(N3c4ccccc4Sc4ccccc43)cc21`: the photoluminescence quantum yield (in C1CCOC1) worked out at 0.01, the photoluminescence quantum yield (in CCCCCC) is 0.11, the photoluminescence quantum yield (in Cc1ccccc1) was found to be 0.06 and the photoluminescence quantum yield (in ClCCl) came to 0.01.

For `CCN1c2ccc(/C=N/Nc3ccccn3)cc2Sc2cc(-c3ccc(C#N)cc3)ccc21`, the photoluminescence quantum yield stood at 0.23 (in C1CCOC1), 0.23 (in CS(C)=O), 0.33 (in Cc1ccccc1) and 0.36 (in ClCCl).

Take `COC(=O)CNC(=O)c1nc2c(N(C)C)nc(N(C)C)nc2n1Cc1ccccc1`: the photoluminescence quantum yield runs as follows: (in C1COCCO1) 0.95; (in CC#N) 0.95; (in CO) 0.9; (in ClCCl) 0.91.

`COc1ccc2c3ccc(OC)cc3n(-c3ccc(-c4nnc(-c5c(C(C)C)cc(C(C)C)cc5C(C)C)o4)cc3)c2c1` displayed a photoluminescence quantum yield (in Cc1ccccc1) of 0.03.

As for `COC(=O)c1nc2cnc(N(C)C)nc2n1Cc1ccccc1`, the photoluminescence quantum yield reads like this: (in C1COCCO1) 0.83; (in CC#N) 0.6; (in CO) 0.17; (in ClCCl) 0.81.

`C(=C1c2ccccc2CCc2ccccc21)c1ccc(C=C2c3ccccc3CCc3ccccc32)cc1` displayed a photoluminescence quantum yield (in C1CCOC1) of 0.001.

In the case of `COc1ccc(-c2cn3cc(C)c[n+]3[n-]2)cc1`, the photoluminescence quantum yield (in ClCCl) was found to be 0.025.

The record behind these values is the Deep4Chem optical property database.
